Tests used:
blackgrass = assay: Test F pre-/postemergence herbicide test; assay type: in vivo, Alopecurus myosuroides
Source text: (§1) Seeds of plant species selected from annual blugrass (Poa annua L.), blackgrass (Alopecurus myosuroides Huds.), catchweed bedstraw (Gallium aparine L.), common chickweed (Stellaria media (L.) Vill./Cyr.), downy bromegrass (Bromus tectorum L.), green foxtail (Setaria viridis (L.) Beauv.), Italian ryegrass (Lolium multiflorum Lam.), kochia (Kochia scoparia (L.). Schrad.), lambsquarters (Chenopodium album L.), littleseed canarygrass (Phalaris minor Retz.), pigweed (Amaranthus retroflexus L.), Russian thistle (Salsola kali L. ssp. Ruthenica (Iljin) Soo), wild buckwheat (Polygonum convolvulus L.), wild mustard (Sinapis arvensis L.), wild oat (Avena fatua L.), windgrass (Apera spica-venti (L.) Beauv.), winter barley (Hordeum vulgare L.), and wheat (Triticum aestivum L.) were planted and treated preemergence with test chemicals formulated in a non-phytotoxic solvent mixture which included a surfactant.
(§2) At the same time, plants selected from these crop and weed species were treated with postemergence applications of some of the test chemicals formulated in the same manner. Plants ranged in height from 2 to 18 cm (1- to 4-leaf stage) for postemergence treatments. Treated plants and controls were maintained in a greenhouse for 12 to 14 days, after which time all species were compared to controls and visually evaluated. Plant response ratings, summarized in Table F, are based on a scale of 0 to 100 where 0 is no effect and 100 is complete control. A dash (-) response means no test result.

Italian ryegrass = assay: Test F pre-/postemergence herbicide test; assay type: in vivo, Lolium multiflorum
Source text: as §1, §2

wild buckwheat = assay: Test F pre-/postemergence herbicide test; assay type: in vivo, Polygonum convolvulus
Source text: as §1, §2

wheat = assay: Test F pre-/postemergence herbicide test; assay type: in vivo, Triticum aestivum
Source text: as §1, §2

windgrass = assay: Test F pre-/postemergence herbicide test; assay type: in vivo, Apera spica-venti
Source text: as §1, §2

large crabgrass (DIGSA) = assay: Test J Compounds 2 and 6 alone and in combination with other herbicides, foliage spray; assay type: in vivo, Digitaria sanguinalis; design: key: 0 = no effect, 100 = complete control; details: applied alone
Source text: (§3) Colby's Equation was used to calculate the expected additive herbicidal effect of the mixtures of Compound 6 with Harmony® Extra (i.e. a 2:1 mixture by weight of thifensulfuron-methyl and tribenuron-methyl). […]
(§4) Seeds of test plants consisting of barnyardgrass (ECHCG; Echinochloa crus-galli (L.) Beauv.), blackgrass (ALOMY; Alopecurus myosuroides Huds.), Surinam grass (BRADC; Urochloa decumbens (Staph) R. D. Webster, previously named Brachiaria decumbens Stapf), cocklebur (XANST, Xanthium strumarium L.), corn (ZEAMD, Zea mays L. cv. ‘Pioneer 33G26’), large crabgrass (DIGSA, Digitaria sanguinalis (L.) Scop.), giant foxtail (SETFA, Setaria faberi Herrm.), lambsquarters (CHEAL, Chenopodium album L.), morningglory (IPOCO, Ipomoea coccinea L.), pigweed (AMARE, Amaranthus retroflexus L.), velvetleaf (ABUTH, Abutilon theophrasti Medik.) wheat (TRZAS, Triticum aestivum L. cv. ‘Recital’) and wild oat (AVEFA, Avena fatua L.) were planted in Redi-Earth® planting medium (Scotts Company, 14111 Scottslawn Road, Marysville, Ohio 43041) comprising spaghnum peat moss and vermiculite. […] Also listed in Table J are the expected effects for the mixtures calculated using Colby's Equation.

barnyardgrass (ECHCG) = assay: as above; assay type: in vivo, Echinochloa crus-galli; design: key to ECHCG Obsd.: percentage herbicidal effect (observed); details: for ECHCG Obsd.: applied alone
Source text: Colby's Equation was used to calculate the expected additive herbicidal effect of the mixtures of Compound 6 with Harmony® Extra (i.e. a 2:1 mixture by weight of thifensulfuron-methyl and tribenuron-methyl). Colby's Equation (Colby, S. R. “Calculating Synergistic and Antagonistic Responses of Herbicide Combinations,” Weeds, 15(1), pp 20-22 (1967)) calculates the expected additive effect of herbicidal mixtures, and for two active ingredients is of the form: Pa+b=Pa+Pb−(PaPb/100) wherein • Pa+b is the percentage effect of the mixture expected from additive contribution of the individual components, • Pa is the observed percentage effect of the first active ingredient at the same use rate as in the mixture, and • Pb is the observed percentage effect of the second active ingredient at the same use rate as in the mixture.
as §4, with “vermiculite. Seeds of small-seeded species were planted about 1 cm deep; larger seeds were planted about 2.5 cm deep. Plants were grown in a greenhouse using supplemental lighting to maintain a photoperiod of about 14 hours; daytime and nighttime temperatures were about 24-30° C. and 22-25° C., respectively.” for “vermiculite.”

corn (ZEAMD) = assay: as above; assay type: in vivo, Zea mays; design: key: percentage herbicidal effect (observed); details: applied alone
Source text: as §3, §4

CCn1nc(C(C)(C)C)cc1C(=O)Nc1cc(C(=O)OC(C)C)c(F)cc1F [Compound 248]
Plant response rating (0-100), Blackgrass (blackgrass; Postemergence, 31 g ai/ha): 45
Plant response rating (0-100), Blackgrass (blackgrass; Postemergence, 62 g ai/ha): 50
Plant response rating (0-100), Blackgrass (blackgrass; Postemergence, 125 g ai/ha): 60
Plant response rating (0-100), Blackgrass (blackgrass; Postemergence, 250 g ai/ha): 60
Plant response rating (0-100), Blackgrass (blackgrass; Preemergence, 31 g ai/ha): 50
Plant response rating (0-100), Blackgrass (blackgrass; Preemergence, 62 g ai/ha): 50
Plant response rating (0-100), Blackgrass (blackgrass; Preemergence, 125 g ai/ha): 65
Plant response rating (0-100), Blackgrass (blackgrass; Preemergence, 250 g ai/ha): 65
Plant response rating (0-100), Ryegrass, Italian (Italian ryegrass; Postemergence, 31 g ai/ha): 45
Plant response rating (0-100), Ryegrass, Italian (Italian ryegrass; Postemergence, 62 g ai/ha): 55
Plant response rating (0-100), Ryegrass, Italian (Italian ryegrass; Postemergence, 125 g ai/ha): 60
Plant response rating (0-100), Ryegrass, Italian (Italian ryegrass; Postemergence, 250 g ai/ha): 65
Plant response rating (0-100), Ryegrass, Italian (Italian ryegrass; Preemergence, 31 g ai/ha): 30
Plant response rating (0-100), Ryegrass, Italian (Italian ryegrass; Preemergence, 62 g ai/ha): 50
Plant response rating (0-100), Ryegrass, Italian (Italian ryegrass; Preemergence, 125 g ai/ha): 50
Plant response rating (0-100), Ryegrass, Italian (Italian ryegrass; Preemergence, 250 g ai/ha): 60
Plant response rating (0-100), Buckwheat, Wild (wild buckwheat; Postemergence, 31 g ai/ha): 50
Plant response rating (0-100), Buckwheat, Wild (wild buckwheat; Postemergence, 62 g ai/ha): 50
Plant response rating (0-100), Buckwheat, Wild (wild buckwheat; Postemergence, 125 g ai/ha): 50
Plant response rating (0-100), Buckwheat, Wild (wild buckwheat; Postemergence, 250 g ai/ha): 60
Plant response rating (0-100), Buckwheat, Wild (wild buckwheat; Preemergence, 31 g ai/ha): 30
Plant response rating (0-100), Buckwheat, Wild (wild buckwheat; Preemergence, 62 g ai/ha): 40
Plant response rating (0-100), Buckwheat, Wild (wild buckwheat; Preemergence, 125 g ai/ha): 45
Plant response rating (0-100), Buckwheat, Wild (wild buckwheat; Preemergence, 250 g ai/ha): 60
Plant response rating (0-100), Wheat (wheat; Postemergence, 31 g ai/ha): 0
Plant response rating (0-100), Wheat (wheat; Postemergence, 62 g ai/ha): 5
Plant response rating (0-100), Wheat (wheat; Postemergence, 125 g ai/ha): 5
Plant response rating (0-100), Wheat (wheat; Postemergence, 250 g ai/ha): 20
Plant response rating (0-100), Wheat (wheat; Preemergence, 31 g ai/ha): 0
Plant response rating (0-100), Wheat (wheat; Preemergence, 62 g ai/ha): 0
Plant response rating (0-100), Wheat (wheat; Preemergence, 125 g ai/ha): 0
Plant response rating (0-100), Wheat (wheat; Preemergence, 250 g ai/ha): 10
Plant response rating (0-100), Windgrass (windgrass; Postemergence, 31 g ai/ha): 50
Plant response rating (0-100), Windgrass (windgrass; Postemergence, 62 g ai/ha): 50
Plant response rating (0-100), Windgrass (windgrass; Postemergence, 125 g ai/ha): 50
Plant response rating (0-100), Windgrass (windgrass; Postemergence, 250 g ai/ha): 50
Plant response rating (0-100), Windgrass (windgrass; Preemergence, 31 g ai/ha): 70
Plant response rating (0-100), Windgrass (windgrass; Preemergence, 62 g ai/ha): 70
Plant response rating (0-100), Windgrass (windgrass; Preemergence, 125 g ai/ha): 100
Plant response rating (0-100), Windgrass (windgrass; Preemergence, 250 g ai/ha): 100

CCn1nc(C(C)(C)C)cc1C(=O)Nc1cc(C(=O)N(C)C)ccc1F [Compound 6, N-[5-[(dimethylamino)carbonyl]-2-fluorophenyl]-3-(1,1-dimethylethyl)-1-ethyl-1H-pyrazole-5-carboxamide]
DIGSA Obsd. (large crabgrass (DIGSA); 62 g a.i./ha): 8
DIGSA Obsd. (large crabgrass (DIGSA); 125 g a.i./ha): 13
ECHCG Obsd. (barnyardgrass (ECHCG); 62 g a.i./ha): 17
ECHCG Obsd. (barnyardgrass (ECHCG); 125 g a.i./ha): 63
observed effect of mixture compared with additive effect expected from Colby's Equation (barnyardgrass (ECHCG); mixture with terbacil, barnyardgrass, foliage spray, 15 days after treatment): greater than additive
ZEAMD Obsd. (corn (ZEAMD); 62 g a.i./ha): 22
ZEAMD Obsd. (corn (ZEAMD); 125 g a.i./ha): 28

From patent US20060069132A1, “Azolecarboxamide herbicides” (priority 2004, published 2006)
